In patent EP0674636B1, “QUINUCLIDINE DERIVATIVES AS SQUALENE SYNTHASE INHIBITORS” (ZENECA LIMITED, priority 1992, dated 1994):

How the values were obtained:
[1] = biological target: T1, Squalene synthase (Rattus norvegicus, UniProt Q02769); test: Inhibition of squalene synthase (formation of squalene from tritiated farnesyl pyrophosphate by rat liver microsomal protein); type: biochemical; conditions: substrate 1-[3H]-farnesyl pyrophosphate 20µM
T1 construct: from tissue; host or cells: rat liver microsomes
T1 sequence (Q02769 1-416): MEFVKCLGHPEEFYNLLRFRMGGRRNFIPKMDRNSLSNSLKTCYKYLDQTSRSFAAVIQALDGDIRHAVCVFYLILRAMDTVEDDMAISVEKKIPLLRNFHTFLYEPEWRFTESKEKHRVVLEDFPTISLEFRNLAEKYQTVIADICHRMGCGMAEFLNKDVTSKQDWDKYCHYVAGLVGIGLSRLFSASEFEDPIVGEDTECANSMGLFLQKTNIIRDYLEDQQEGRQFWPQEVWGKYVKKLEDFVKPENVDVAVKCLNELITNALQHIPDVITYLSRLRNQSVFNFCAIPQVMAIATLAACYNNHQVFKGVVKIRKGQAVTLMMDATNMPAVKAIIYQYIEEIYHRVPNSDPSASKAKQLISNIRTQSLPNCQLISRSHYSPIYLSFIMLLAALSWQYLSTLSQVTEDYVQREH
Procedure: (a) Inhibition of Squalene synthase
In this test, the ability of a compound to prevent the formation of squalene from a radioactive substrate (tritiated farnesyl pyrophosphate) is assessed.
The test compound is incubated at a concentration of 25 micromolar in 200µl of a buffered solution containing potassium phosphate (50mM), MgCl2 (4.95mM), KF (9.9mM), NADPH (0.9mM) and rat liver microsomal protein (20µg). Rat liver microsomes are prepared by the method described in published European Patent Application No. 324,421 and stored in liquid nitrogen prior to assay. Assay vials are kept at 37°C throughout the incubation.
The reaction is started with the addition of the substrate (1-[^3H]-farnesyl pyrophosphate), final concentration 20µM, and stopped after 15 minutes reaction time with the addition of 50µl of 4% KOH. The reaction products are separated from unreacted substrate after application to a C-18 octadecyl lccBond column (Analytichem Int product No. 617101). An aqueous fraction is eluted with 250µl of 0.1M KOH. Squalene is then eluted with 1.0 ml 10% ethylacetate in hexane and radioactivity determined. The difference in radioactivity in the presence and absence of the test compound is used to determine the level of inhibition. […] The IC50 can then be determined from a plot of percentage inhibition against concentration of test compound.

[2] = system: de novo hepatic cholesterol synthesis; test: Acute rat cholesterol synthesis assay (de novo hepatic cholesterol synthesis from 14C-acetate); type: in vivo; conditions: at 50mg/kg; female rats
Procedure: (b) Acute rat cholesterol synthesis assay.
This is an acute in vivo test in the rat to measure de novo hepatic cholesterol synthesis from exogenously administered ^14C-acetate.
Female rats (35 - 55 g) are housed in reverse lighting conditions (red light from 0200h - 1400h) for a period of about 2 weeks prior to test. Animals are allowed free access to chow and drinking water throughout this period. At test, animals should weigh 125 - 150 g.
Test compounds may be administered by oral gavage, dissolved or suspended in 0.5% polysorbate, or by ip or iv dosing. Control animals receive vehicle alone. After 1 hour the rats are injected ip with 25µCi [2-^14C]-acetate (NEN DUPONT. specific activity, 45-60mCi/mmol NEC-085H, or AMERSHAM specific activity, 50-60mCi/mmol CFA 14) in a volume of 0.25 ml saline (100µCi/ml). After a further hour, rats are terminally anaesthetised with halothane and a blood sample obtained from the abdominal vena cava.
1ml of plasma is lyophilised and then saponified in 2ml ethanolic KOH (1 part 33% KOH, 9 parts ethanol) at 75°C for 2 hours. After addition of an equal quantity of water, non-saponifiable lipids are extracted with two 5ml volumes of hexane. The hexane extracts are evaporated to dryness and the residues dissolved in ethanol to determine cholesterol specific radioactivity. ED50 values can be determined in the standard way.

Structure (SMILES): OC1(c2ccc(/C=C/c3cccnc3)cc2)CN2CCC1CC2 (centres unmarked) [Example 2, 3-(4-[(E)-2-(3-pyridyl)vinyl]phenyl)quinuclidin-3-ol]
- inhibition at 2.5 µM [1]: ~89%
- reduction in the rate of cholesterol biosynthesis [2]: 72%
